Patent US10150737B2, “Compounds for controlling arthropods” (priority 2013, dated 2018)

How the values were obtained:
Lucilia cuprina = Lucilia cuprina test; format: in vivo; conditions: application rate 100 ppm; L1 larvae; after 2 days
Procedure: (§1) Solvent: dimethyl sulphoxide
To produce an appropriate active ingredient formulation, 10 mg of active ingredient are mixed with 0.5 ml of dimethyl sulphoxide, and the concentrate is diluted with water to the desired concentration.
About 20 L1 larvae of the Australian sheep blowfly (Lucilia cuprina) are transferred into a test vessel containing minced horsemeat and the active ingredient preparation of the desired concentration.
After 2 days, the kill in % is determined. 100% means that all the larvae have been killed; 0% means that none of the larvae have been killed.

Boophilus microplus = Boophilus microplus - injection test; format: in vivo; conditions: application rate 20 μg/animal; injection into engorged adult female ticks; after 7 days
Procedure: as §1
To produce an appropriate active ingredient formulation, 10 mg of active ingredient are mixed with 0.5 ml of solvent and the concentrate is diluted with solvent to the desired concentration.
1 μl of the active ingredient solution is injected into the abdomen of 5 engorged adult female cattle ticks (Boophilus microplus). The animals are transferred into dishes and kept in a climate-controlled room.
Efficacy is assessed after 7 days by laying of fertile eggs. Eggs which are not visibly fertile are stored in a climate-controlled cabinet until the larvae hatch after about 42 days. An efficacy of 100% means that none of the ticks has laid any fertile eggs; 0% means that all the eggs are fertile.

Phaedon cochleariae = Phaedon cochleariae - spray test; format: in vivo; conditions: larvae on Chinese cabbage leaf discs, after 7 days
Procedure: (§2) Solvent: 78.0 parts by weight of acetone and 1.5 parts by weight of dimethylformamide
(§3) Emulsifier: alkylaryl polyglycol ether
(§4) To produce an appropriate active ingredient formulation, 1 part by weight of active ingredient is dissolved using the specified parts by weight of solvent and made up with water containing an emulsifier concentration of 1000 ppm until the desired concentration is attained. To produce further test concentrations, the preparation is diluted with emulsifier-containing water.
Discs of Chinese cabbage leaves (Brassica pekinensis) are sprayed with an active ingredient formulation of the desired concentration and, after drying, populated with larvae of the mustard beetle (Phaedon cochleariae).
After 7 days, efficacy in % is determined. 100% means that all the beetle larvae have been killed; 0% means that no beetle larvae have been killed.

[1] = logP determination by HPLC on a reversed-phase column (C18); format: physicochemical; conditions: for logP^a): HPLC-MS method a); for log P: HPLC-MS
Spodoptera frugiperda = Spodoptera frugiperda - spray test; format: in vivo; conditions: caterpillars on maize leaf discs, after 7 days
Procedure: as §2, §3, §4
Leaf discs of maize (Zea mays) are sprayed with an active ingredient formulation of the desired concentration and, after drying, populated with caterpillars of the armyworm (Spodoptera frugiperda).
After 7 days, efficacy in % is determined. 100% means that all the caterpillars have been killed; 0% means that no caterpillars have been killed.

Tetranychus urticae = Tetranychus urticae - spray test, OP-resistant; format: in vivo; conditions: bean leaf discs, after 6 days
Procedure: as §2, §3, §4
Discs of bean leaves (Phaseolus vulgaris) infested by all stages of the greenhouse red spider mite (Tetranychus urticae) are sprayed with an active ingredient formulation of the desired concentration.
After 6 days, efficacy in % is determined. 100% means that all the spider mites have been killed; 0% means that none of the spider mites have been killed.

Ctenocephalides felis = Ctenocephalides felis - oral test; format: in vivo; conditions: application rate 100 ppm in citrated cattle blood; after 2 days
Procedure: as §1
For the purpose of producing an appropriate active ingredient formulation, 10 mg of active ingredient are mixed with 0.5 ml of dimethyl sulphoxide. Dilution with citrated cattle blood gives the desired concentration.
About 20 unfed adult cat fleas (Ctenocephalides felis) are placed into a chamber which is closed at the top and bottom with gauze. A metal cylinder whose bottom end is closed with parafilm is placed onto the chamber. The cylinder contains the blood/active ingredient preparation, which can be imbibed by the fleas through the parafilm membrane.
After 2 days, the kill in % is determined. 100% means that all of the fleas have been killed; 0% means that none of the fleas have been killed.

[2] = reversed-phase column (C18), Table I-T3

| SMILES | efficacy (kill) (Lucilia cuprina) [%] | efficacy (laying of fertile eggs) (Boophilus microplus) [%] | efficacy (Phaedon cochleariae; application rate 100 g/ha) [%] | logP^a) [1] | logP^a) [1, 2] | efficacy (Spodoptera frugiperda; application rate 500 g/ha) [%] | efficacy (Tetranychus urticae; application rate 500 g/ha) [%] | efficacy (Phaedon cochleariae; application rate 500 g/ha) [%] | efficacy (kill) (Ctenocephalides felis) [%] | efficacy (Spodoptera frugiperda; application rate 100 g/ha) [%] | efficacy (Tetranychus urticae; application rate 20 g/ha) [%] | efficacy (Tetranychus urticae; application rate 100 g/ha) [%] | logP^a) ([1]; reversed-phase column (C18)) | log P [1, 2] | logP ([1]; HPLC, C18 reversed phase, acetonitrile/water with formic acid, EEC Directive 79/831 Annex V.A8) |
| --- | --- | --- | --- | --- | --- | --- | --- | --- | --- | --- | --- | --- | --- | --- | --- |
| Cc1cc(C(F)(C(F)(F)F)C(F)(F)F)cc(C)c1-n1cc(-c2ccc(Cl)c(C(=O)NCC(=O)NCC(F)(F)F)c2)cn1 [I-T3-6] | 100 | 100 | 100 | 4.1 | 4.1 |  |  |  |  |  |  |  |  |  |  |
| Cc1cc(C(F)(C(F)(F)F)C(F)(F)F)cc(C)c1-n1cc(-c2cccc(C(=O)NC3(C#N)CC3)c2F)cn1 [I-T3-10] | 100 | 100 |  | 4.2 | 4.2 | 100 | 100 | 100 | 100 |  |  |  |  |  |  |
| Cc1cc(C(F)(C(F)(F)F)C(F)(F)F)cc(C)c1-n1cc(-c2cc(C(=O)NC3(C#N)CC3)c(F)cc2Cl)cn1 [I-T3-12] | 80 | 100 |  | 4.7 | 4.7 | 100 |  | 100 | 100 |  |  |  |  |  |  |
| Cc1cc(C(F)(C(F)(F)F)C(F)(F)F)cc(C)c1-n1cc(-c2cc(C(=O)NC3CC3)cc(C(F)(F)F)c2)cn1 [I-T3-15] | 100 | 100 |  | 4.9 | 4.9 |  |  | 100 | 90 |  |  |  |  |  |  |
| Cc1cc(C(F)(C(F)(F)F)C(F)(F)F)cc(C)c1-n1cc(-c2cc(C(=O)NC3(C#N)CC3)cc(C(F)(F)F)c2)cn1 [I-T3-18] | 100 | 100 |  | 4.7 | 4.7 | 100 |  | 100 | 100 |  |  |  |  |  |  |
| O=C(NCC(F)(F)F)c1cc(-c2cnn(-c3ccc(C(F)(C(F)(F)F)C(F)(F)F)cc3Cl)c2)ccc1Cl [I-T3-32] | 100 | 100 |  | 4.7 | 4.7 |  |  |  | 100 |  |  |  |  |  |  |
| O=C(NCCC(F)(F)F)c1cc(-c2cnn(-c3ccc(C(F)(C(F)(F)F)C(F)(F)F)cc3Cl)c2)ccc1Cl [I-T3-33] | 100 | 100 |  | 4.7 | 4.7 |  |  |  | 100 |  |  |  |  |  |  |
| O=C(NCC(F)(F)F)c1cc(-c2cnn(-c3ccc(C(F)(C(F)(F)F)C(F)(F)F)cc3OC(F)(F)F)c2)ccc1Cl [I-T3-36] | 100 | 100 |  | 5.0 | 5.0 |  |  | 100 | 80 |  |  |  |  |  |  |
| O=C(NC1CSC1)c1cc(-c2cnn(-c3ccc(C(F)(C(F)(F)F)C(F)(F)F)cc3OC(F)(F)F)c2)ccc1Cl [I-T3-37] | 100 | 100 |  | 4.9 | 4.9 |  |  | 100 | 90 |  |  |  |  |  |  |
| CCc1cc(C(F)(C(F)(F)F)C(F)(F)F)ccc1-n1cc(-c2ccc(Cl)c(C(=O)NCC(F)(F)F)c2)cn1 [I-T3-40] | 100 | 100 | 100 | 4.9 | 4.9 |  |  |  | 100 | 100 |  |  |  |  |  |
| N#CC1(NC(=O)c2cc(-c3cnn(-c4c(F)cc(C(F)(F)F)cc4F)c3)ccc2Cl)CC1 [I-T3-49] | 100 | 100 | 100 | 3.2 | 3.2 |  |  |  | 100 |  | 100 |  |  |  |  |
| N#CC1(NC(=O)c2cc(-c3cnn(-c4ncc(C(F)(F)F)cc4Cl)c3)ccc2Cl)CC1 [I-T3-59] | 100 | 100 | 100 | 3.1 | 3.1 |  |  |  | 100 |  |  |  |  |  |  |
| O=C(NC1CC1)c1cc(-c2cnn(-c3ncc(C(F)(F)F)cc3Cl)c2)ccc1Cl [I-T3-60] | 90 | 100 |  | 3.2 | 3.2 |  |  |  | 90 |  |  |  |  |  |  |
| CCc1cc(C(F)(C(F)(F)F)C(F)(F)F)ccc1-n1cc(-c2cccc(C(=O)NC3(C#N)CC3)c2F)cn1 [I-T3-74] | 90 | 100 |  | 4.1 | 4.5 | 100 |  | 100 |  |  |  | 90 |  |  |  |
| CCc1cc(C(F)(C(F)(F)F)C(F)(F)F)ccc1-n1cc(-c2cccc(C(=O)NC3CC3)c2F)cn1 [I-T3-75] | 80 | 90 |  | 4.2 | 4.7 | 100 | 100 | 100 |  |  |  |  |  |  |  |
| Cc1cc(C(F)(C(F)(F)F)C(F)(F)F)cc(C)c1-n1cc(-c2cnc(C3CC3)c(C(=O)NC3CC3)c2)cn1 [I-T3-140] | 100 | 100 | 100 |  |  |  |  |  | 100 | 100 |  |  | 4.2 | 4.2 |  |
| Cn1ccc(NC(=O)c2cc(-c3cnn(-c4c(Cl)cc(C(F)(F)F)cc4Cl)c3)cnc2Cl)n1 [I-T3-146] | 90 | 100 |  |  |  |  |  |  | 100 |  |  | 100 | 2.8 | 2.8 |  |
| CN(C(=O)c1cc(-c2ccn(-c3c(Cl)cc(C(F)(C(F)(F)F)C(F)(F)F)cc3Cl)c2)cnc1Cl)C1(C#N)CC1 [I-T46-6] |  |  | 100 |  |  |  |  |  |  | 100 |  | 100 |  |  | 4.8 |
